Results published in patent publication US20220206013A1, “CYSTIC FIBROSIS URINE TEST” (Aarhus Universitet, priority 2019, published 2022).

Experiments:
Pendrin WT and KO mice [1] = experiment: Secretin-induced urine alkalisation and urine HCO3− excretion in anaesthetized pendrin WT/KO mice; type: in vivo, mouse
Procedure: (§1) Induction of anaesthesia was performed with i.p. injection of […] of a ketamine-xylazine mix (10 mg/ml and 1 mg/ml). An i.v. access was obtained by cannulation of one tail vein and the animals were kept in anaesthesia by a continuous rate infusion (CRI) corresponding to half of the induction dose pr. hour. Mice were infused with a solution containing 145 mM NaCl at pH 7.4 with a perfusion rate of 0.1 ml h^−1 via a syringe pump (Model 33 Twin syringe pump, Harvard Apparatus, USA).
(§2) Bladder catheterization was introduced and urine was collected every 5 minutes. Urinary pH was measured continuously throughout the experiment by placement of a micro pH electrode (pH-200, Unisense, Aarhus, DK) in the outflow of the catheter and the reference electrode was placed into the suprapubic operation wound (see FIG. 7A). Following a 30-min. control period, mice were injected intraperitoneally with either secretin (10 μg/25 g BW) or saline.
(§3) The urine was collected and pooled for 30 minutes allowing measurement of mean [HCO3^−] in the time periods 0-30, 30-60 and 60-90 after starting the experiment. In experiments with too low urine output, urine was pooled to allow analysis of [HCO3^−] before and after secretin application. Measurements were performed by a Corning 960 analyser (Savory et al. 1978) and calibrated to small volume samples of 50 μl or alternatively by a custom built infrared CO2-sensor based system for smaller volume samples (Trepiccione et al. 2017) (10-40 μl).
(§4) All values are presented as mean values ±standard error of mean (SEM). Due to a low number of observations in each series, n=7 in most, we were not able to determine whether the data followed a Gaussian distribution. Therefore, two-tailed Wilcoxon matched pairs signed rank test, in paired data, and two-tailed Mann-Whitney test, in unpaired data, were performed to test for significance.

[2] = tested on: global CFTR WT and KO mice; experiment: Secretin-induced urine alkalisation and urine HCO3− excretion in global CFTR WT/KO mice; type: in vivo, mouse
Procedure: as §1, §2, §3, §4

[3] = tested on: tubule specific CFTR (CFTR-TS) WT and KO mice; experiment: Secretin-induced urine alkalisation and urine HCO3− excretion in tubule specific CFTR WT/KO mice; type: in vivo, mouse
Text: The Renal tubule specific CFTR (CFTRTS) KO mouse was produced in the laboratory of Dr. Kunzelmann and Dr. Schreiber in Regensburg/Germany and performed in compliance with the guidelines for the welfare of experimental animals issued by the Federal Government of Germany. C57BL6/J CFTR fl10 mice (Hodges et al. 2008) were bred in a C57Bl/6J background generated by the Cre/loxP-system with tissue specific Cre-recombinase expression from the Pax8 locus (Kos 2004; Bouchard et al. 2004).
as §1, §2, §3, §4

Pendrin WT and KO mice [4] = experiment: Secretin-induced urine alkalisation and urine HCO3− excretion in anaesthetized pendrin WT/KO mice; type: in vivo, mouse; remark: listed apart in the source
CFTR = CFTR (Homo sapiens, UniProt P13569); experiment: clinical
Sequence of CFTR (P13569 whole entry): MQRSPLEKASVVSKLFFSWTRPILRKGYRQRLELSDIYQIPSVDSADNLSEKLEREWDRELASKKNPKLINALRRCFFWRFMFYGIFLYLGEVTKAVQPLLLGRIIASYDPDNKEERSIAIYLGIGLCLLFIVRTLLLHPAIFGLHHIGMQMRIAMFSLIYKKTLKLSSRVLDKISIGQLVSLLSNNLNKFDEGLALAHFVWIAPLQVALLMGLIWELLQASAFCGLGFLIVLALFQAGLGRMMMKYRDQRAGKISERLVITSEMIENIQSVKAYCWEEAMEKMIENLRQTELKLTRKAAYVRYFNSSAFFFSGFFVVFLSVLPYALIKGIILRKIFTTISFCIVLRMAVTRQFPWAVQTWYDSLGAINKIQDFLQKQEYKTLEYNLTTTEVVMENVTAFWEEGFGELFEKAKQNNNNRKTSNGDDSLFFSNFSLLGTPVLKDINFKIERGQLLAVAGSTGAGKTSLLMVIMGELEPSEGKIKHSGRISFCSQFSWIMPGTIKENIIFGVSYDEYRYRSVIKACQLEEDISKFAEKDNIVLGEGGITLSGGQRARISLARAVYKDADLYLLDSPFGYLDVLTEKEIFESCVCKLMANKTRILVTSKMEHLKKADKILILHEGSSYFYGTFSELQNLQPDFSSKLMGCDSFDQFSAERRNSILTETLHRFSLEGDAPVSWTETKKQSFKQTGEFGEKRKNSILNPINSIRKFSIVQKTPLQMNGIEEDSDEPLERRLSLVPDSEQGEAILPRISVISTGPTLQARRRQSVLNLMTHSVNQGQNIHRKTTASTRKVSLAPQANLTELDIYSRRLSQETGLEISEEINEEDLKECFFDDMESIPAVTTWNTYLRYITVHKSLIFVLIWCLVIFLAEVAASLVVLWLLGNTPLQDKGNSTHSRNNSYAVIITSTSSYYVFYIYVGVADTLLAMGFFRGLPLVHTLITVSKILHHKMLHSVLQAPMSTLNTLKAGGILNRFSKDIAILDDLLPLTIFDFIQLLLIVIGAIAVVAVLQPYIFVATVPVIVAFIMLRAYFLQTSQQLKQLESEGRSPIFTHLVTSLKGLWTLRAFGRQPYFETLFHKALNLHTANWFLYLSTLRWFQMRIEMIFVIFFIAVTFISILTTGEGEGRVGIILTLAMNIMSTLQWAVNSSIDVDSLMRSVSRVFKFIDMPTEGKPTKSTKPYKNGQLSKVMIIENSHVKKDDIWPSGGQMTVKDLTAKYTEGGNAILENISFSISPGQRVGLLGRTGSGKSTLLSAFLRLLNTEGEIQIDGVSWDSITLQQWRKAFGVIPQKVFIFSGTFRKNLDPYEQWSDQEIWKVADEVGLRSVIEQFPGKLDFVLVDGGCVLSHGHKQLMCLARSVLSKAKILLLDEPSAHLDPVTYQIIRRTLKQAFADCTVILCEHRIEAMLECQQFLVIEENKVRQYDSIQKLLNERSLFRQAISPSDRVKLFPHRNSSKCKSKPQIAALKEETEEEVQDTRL
Procedure: Twelve healthy adult volunteers aged 22 to 59 years of both genders were tested. The volunteers were healthy and without any known CFTR protein mutations.
In addition, the venous acid-base status was checked.
The subjects then drank 200 mL of tap water. In addition, the venous acid-base status was checked.
The subjects then drank 200 mL of tap water.

[5] = tested on: CFTR wild type, CFTR knock out and pendrin knock-out mice; settings: WT mice; gavage 60 μmoles NaHCO3/25 g bodyweight; cumulative sample after 3 hours
Procedure: The experiments were performed in littermate mice bred from heterozygotes. Mice of both genders were used at an approximate age of 2 to 4 months.
The Pendrin KO mouse was produced by insertion of a neo-cassette replacing exon 8 in the Scl26a4 gene, leading to loss of pendrin expression as described in (Everett et al. 2001). It was purchased from The Jackson Laboratory, JAX stock #018424.
The global CFTR (CFTRG) KO mouse (CFTR S489X-; FABP-hCFTR) was purchased from The Jackson Laboratory, JAX stock #002364. This is a transgenic global CFTR KO mouse strain with expression of human CFTR (hCFTR) under the promoter activity of rat fatty acid binding protein 2, intestinal (Fabp2) promoter, which corrects the otherwise lethal intestinal phenotype in CFTR KO mice (Zhou et al. 1994).
Awake mice (animals as described under section A.) were manually restrained and a gavage needle was inserted into their stomach. […] Mice were then placed in metabolic cages and their urine collected for further measurement.
Urine was sampled and accumulated for 3 hr before measurement.

[6] = biological target: CFTR (homozygote mutation ΔF508) (Homo sapiens, UniProt P13569, DEL508-508); experiment: CF urine test (oral bicarbonate gastric load) in adult CF patients, before and after CFTR modulator drug
Sequence of CFTR (homozygote mutation ΔF508) (P13569 with tags, fused parts or gaps DEL508-508): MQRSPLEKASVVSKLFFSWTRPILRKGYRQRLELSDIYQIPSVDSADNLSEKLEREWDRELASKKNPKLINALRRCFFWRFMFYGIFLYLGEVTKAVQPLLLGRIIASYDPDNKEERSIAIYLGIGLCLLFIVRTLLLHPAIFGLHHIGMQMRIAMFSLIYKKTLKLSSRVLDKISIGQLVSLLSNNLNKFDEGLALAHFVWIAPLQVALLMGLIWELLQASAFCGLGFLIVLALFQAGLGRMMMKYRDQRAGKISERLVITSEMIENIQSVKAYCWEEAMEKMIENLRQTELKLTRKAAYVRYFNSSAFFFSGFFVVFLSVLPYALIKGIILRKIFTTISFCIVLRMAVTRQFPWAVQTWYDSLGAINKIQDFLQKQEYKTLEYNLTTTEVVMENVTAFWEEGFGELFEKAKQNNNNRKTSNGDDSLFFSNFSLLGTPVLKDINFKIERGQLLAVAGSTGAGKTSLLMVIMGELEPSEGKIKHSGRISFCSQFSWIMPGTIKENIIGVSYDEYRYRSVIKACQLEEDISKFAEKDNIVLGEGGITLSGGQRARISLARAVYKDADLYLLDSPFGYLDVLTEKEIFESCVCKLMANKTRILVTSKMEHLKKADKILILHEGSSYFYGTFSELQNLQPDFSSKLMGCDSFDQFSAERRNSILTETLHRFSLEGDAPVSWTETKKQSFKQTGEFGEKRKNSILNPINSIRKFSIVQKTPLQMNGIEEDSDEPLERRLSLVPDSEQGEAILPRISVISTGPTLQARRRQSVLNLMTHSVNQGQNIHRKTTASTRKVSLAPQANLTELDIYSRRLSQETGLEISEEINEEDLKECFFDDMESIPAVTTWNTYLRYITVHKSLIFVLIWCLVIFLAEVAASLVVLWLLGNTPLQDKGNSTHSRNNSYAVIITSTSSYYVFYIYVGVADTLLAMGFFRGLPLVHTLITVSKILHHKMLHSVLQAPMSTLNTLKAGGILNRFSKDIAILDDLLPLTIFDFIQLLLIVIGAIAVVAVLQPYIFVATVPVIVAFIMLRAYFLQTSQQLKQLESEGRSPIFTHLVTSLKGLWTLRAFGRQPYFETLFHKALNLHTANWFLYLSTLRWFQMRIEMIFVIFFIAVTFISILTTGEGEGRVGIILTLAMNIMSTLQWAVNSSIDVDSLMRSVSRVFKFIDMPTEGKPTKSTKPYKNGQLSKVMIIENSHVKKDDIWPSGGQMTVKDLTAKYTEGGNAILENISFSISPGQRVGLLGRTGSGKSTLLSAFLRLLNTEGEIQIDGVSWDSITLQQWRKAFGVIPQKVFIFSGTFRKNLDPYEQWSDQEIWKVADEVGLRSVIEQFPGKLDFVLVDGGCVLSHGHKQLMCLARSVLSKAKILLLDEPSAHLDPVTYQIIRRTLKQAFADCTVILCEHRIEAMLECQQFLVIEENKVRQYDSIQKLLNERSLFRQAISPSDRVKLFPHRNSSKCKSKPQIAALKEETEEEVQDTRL
Procedure: After 1 hr. urine samples were collected and the participant drank 200 ml of tap water. One hour later, urine samples were collected again and the participant drank further 200 ml of tap water. After three hours from the baseline the final urine sample were collected and the participants drank another 200 ml of tap water.
Nine adult CF patients aged 19 to 45 of both genders with the homozygote mutation ΔF508 were signed up for this test.
Three of the adult CF patients were treated with Orkambi® (400 mg lumacaftor/200 mg ivacaftor twice a day) for four weeks before testing the CF patients for a second time. These included patients of both genders between the age of 19 and 45.
Six of the adult CF patients were treated with Symkevi® (100 mg tezacaftor and 150 mg ivacaftor in the morning and 150 mg ivacaftor in the evening) for four weeks before testing the CF patients for a second time. These included patients of both genders between the age of 20 and 40.
Five ml of urine were given into a 250 ml glass flask.
A two-tailed paired t-test was used to test for significance. A p-value≤0.5 was chosen to represent significance.
At t=1 hr, the subjects were to void the first sample. […] The subjects then drank 200 mL of tap water. In addition, the venous acid-base status was checked.
At t=2 hrs, the subjects were to void the second sample. […] The subjects then drank 200 mL of tap water.
At t=3 hrs, the subjects were to void the third sample. […] The subjects then drank 200 mL of tap water.

[7] = both, human, in vivo, po, 79 mg/kg
[8] = 6 CF patients, pre-symkevi, oral bicarbonate load

secretin
pHu alkalisation (Pendrin WT and KO mice [1]; pendrin KO mice, 10 μg/25 g BW i.p., FIG. 9B): no significant pHu alkalisations | urinary HCO3− excretion vs vehicle (Pendrin WT and KO mice [1]; pendrin KO mice, data not shown): No differences | urinary [HCO3−] vs vehicle (Pendrin WT and KO mice [1]; pendrin KO mice, n=7, FIG. 9D): No differences | late pHu effect (Pendrin WT and KO mice [1]; pendrin KO mice, starting some 20 minutes post-injection): urinary acidification | peak mean urinary alkalisation (Pendrin WT and KO mice [1]; pendrin WT mice, 10 μg/25 g BW i.p., n=7, FIG. 9A): 0.397±0.1 pH units | peak pHu increase (Pendrin WT and KO mice [1]; pendrin WT mice, 10 μg/25 g BW secretin i.p., FIG. 8C): ~0.38 units | urinary [HCO3−] (Pendrin WT and KO mice [1]; pendrin WT mice, 60 minutes following injection, vehicle 0.1697 ±0.1 mM, FIG. 9C): 1.08 ± 0.3 mM | urine HCO3− excretion rate (Pendrin WT and KO mice [1]; pendrin WT mice, 60 minutes post secretin injection, vehicle 1.18±0.57): 5.61±2.06 nmol/h/g BW | HCO3− excretion rate and urine [HCO3−] vs starting or control ([2]; global CFTR KO mice, at any point during the experiment, FIG. 10D): No significant differences | peak difference of pHu vs pH prior to treatment ([2]; global CFTR KO mice, peak 20 min post secretin, n=7, not differing from vehicle treated KO mice): 0.13 pH units | peak mean urinary alkalisation ([2]; global CFTR WT mice, 10 μg/25 g BW i.p., n=6, FIG. 10A): 0.53±0.24 pH units | urinary [HCO3−] increase vs control group (Δ30 minutes) ([2]; global CFTR WT mice, FIG. 10C): 3.02 ± 1.06 mM | ΔHCO3− excretion rate vs control ([2]; global CFTR WT mice, after 60 min, not reaching significance (p=0.09)): 5.55±3.25 nmol/h/g BW | pHu effect vs control experiments ([3]; CFTR-TS KO mice, FIG. 11B): no significant effect | urine [HCO3−] and urine HCO3− excretion rate ([3]; CFTRTS KO mice): No significant secretin-induced differences | peak mean urinary alkalisation ([3]; tubule specific CFTR WT mice, 10 μg/25 g BW i.p., n=7, FIG. 11A): 0.6518±0.11 | urine HCO3− excretion rate, mean difference vs baseline ([3]; tubule specific CFTR WT mice, 60 minutes after secretin treatment, data not shown): 5.623 ± 2.2 nmol/h/kg | urine [HCO3−] change after secretin administration ([3]; tubule specific CFTR WT mice, highest in first 30 minutes): pronounced increase | pHu change (Pendrin WT and KO mice [4]; dose of 0.1 μg i.p.): significant increase | pHu change with dose (Pendrin WT and KO mice [4]; doses of 1, 5 and 10 μg i.p.): increasing pHu alkalisations

O=C(O)O [bicarbonate, NaHCO3]
Cmax (CFTR; [7]): 45000 to 65000 µM | Tmax (CFTR; [7]): 2 h | AUC0-3 of excreted bicarbonate (CFTR; healthy controls, oral 79 mg/kg BW NaHCO3, FIG. 5E): 85-123 mmol bicarbonate *t/L | urine bicarbonate concentration and urine pH [5]: found to increase | AUC0-3 of excreted bicarbonate [6, 8]: 22-45 mmol bicarbonate*t/L | peak value of urine bicarbonate (t=2 hrs) [6, 8]: 11 to 28 mM | AUC0-3 of excreted bicarbonate ([6]; CF patients before treatment with Orkambi, oral bicarbonate load): 14-58 mmol bicarbonate *t/L | Cmax [6, 7]: 14000 to 28000 µM | Tmax ([6]; both, human, in vivo, po, 79 mg/kg BW): 2 h
